Key:
[1] = biological target: T1, p62 protein (Homo sapiens, UniProt Q13501); test: Oligomerization activity of p62 protein by immunoblotting (Experimental Example 1); assay type: cell-based; settings: HEK293 cell lysate treated with test compounds at room temperature for 2 hours; immunoblot, FIG. 2
T1 construct: endogenous in cells; host or cells: HEK293 (lysate treated with compounds)
Source text: In order to evaluate the p62 protein oligomerization activity efficacy by the compounds (Examples 1-25), HEK293 cell line, which is human embryonic kidney-derived cell, was collected. As the representative compounds among the present compounds, the compounds of Examples 1, 2, 3, 5, 6, 7, 8, 9, 12, and 13 (Example 10 (YT-5-1), Example 11 (YT-5-2), Example 12 (YT 5-7), Example 13 (YT 5-8), Example 15 (YT-8-7), Example 16 (YT-8-8), Example 17 (YTK-107), Example 18 ([…]), Example 20 (ATB10041), Example 21 (ATB10042), Example 22 (ATB10043), Example 23 (ATB10044), Example 24 (ATB10045) and Example 25 (ATB10046)) were selected. In order to measure intracellular p62 protein activation and oligomerization according to the treatment with these selected representative compounds, the respective cells were dispensed into a 100 pi dish. The cells were collected after further culturing for 24 hours so that the cells were completely attached to the surface of the plate. 100 ul of lysis buffer (20 mM Tris, pH 7.4), 150 mM NaCl, 1% Triton X-100, 2 mM NaF, 2 mM EDTA, 2 mM beta-glycerophosphate, 5 mM sodium orthovanadate, 1 mM PMSF, leupeptin, aprotinin) were injected into each sample and the cells were lysed. Based on the measured total protein concentration, each sample was treated with test compounds at room temperature for 2 hours, and then a sample buffer was added and allowed to react at 95° C. for 10 minutes. 25 ul was taken from the samples after the reaction, and dispensed into each well of acrylamide gel, and then immunoblotting was performed.

[2] = test system: LC3; test: Autophagy activity in cultured cells by immunoblotting, concentration series (Experimental Example 2); assay type: cell-based, human; settings: HeLa cells; 1, 2, 5, 10 and 20 μM, 24 hours; immunoblot, FIG. 3
Protocol: In order to evaluate the autophagy activity efficacy by the compounds (Examples 1-25), HeLa cell line, which is a cell line derived from a cervical cancer patient, was cultured using a DMEM medium containing 10% FBS and 1% streptomycin/penicillin in an incubator with 5% carbon dioxide. As the representative compounds among the present compounds, the compounds of Examples 1, 2, 3, 5, 6, 7, 8, 9, 12 and 13 (Example 5 (YTK-1005), Example 1 (YTK-1105), Example 6 (YTK-1205), Example 7 (YTK-1305), Example 2 (YTK-2205), Example 3 (YTK-3305), Example 8 (YTK-105), Example 9 (YTK-205), Example 14 (YTK-1108), Example 12 (YT 5-7), Example 13 (YT 5-8)), Example 20 (ATB10041), Example 21 (ATB10042), Example 22 (ATB10043), Example 23 (ATB10044), Example 24 (ATB10045), and Example 25 (ATB10046)) were selected. In order to measure autophagy activity according to the treatment with these selected representative compounds, the respective cells were dispensed into 6 well plates. Additional cultures were performed for 24 hours so that the cells were completely attached to the surface of the plate. To find the concentration at which the respective compounds could increase the phenomenon of autophagy, the test compounds were diluted at 1, 2, 5, 10 and 20 μM and treated. After treatment with the respective compounds, the cells were cultured again in a cell incubator for 24 hours, and then the cells were collected. To extract proteins from the collected cells, 100 ul of lysis buffer (20 mM Tris (pH 7.4), 150 mM NaCl, 1% Triton X-100, 2 mM NaF, 2 mM EDTA, 2 mM beta-glycerophosphate, 5 mM sodium orthovanadate, 1 mM PMSF, leupeptin, aprotinin) was injected into each sample, and cells were lysed. Based on the measured total protein concentration, a sample buffer was added to each sample and allowed to react at 100° C. for 5 minutes. 5 ul was taken from the samples after the reaction, and dispensed into each well of acrylamide gel, and then immunoblotting was performed.

[3] = test system: p62 and LC3; test: Autophagy activity by immunofluorescence staining and confocal microscopy (Experimental Example 5); assay type: cell-based, human; settings: HeLa cells, 5 uM, 24 hours, FIG. 6
Protocol: In order to confirm the p62 protein activity and the activity level of autophagy phenomenon by the compounds (Examples 1-25), immunofluorescence staining was performed using p62 and LC3 as markers. In order to confirm the p62 activity and the activity level of autophagy phenomenon by new p62 ligands and isomers thereof in cultured cells, HeLa cell line, which is a cell line derived from cervical cancer patient, was treated with the novel p62 ligand compounds (YTK-1205, YTK-1305, YTK-2205, YTK-3305, YTK-105, YTK-205, YT 5-1, YT 9-1, YT 5-2, YT 9-2, YT 8-2, YT 8-1, YTK-107, YTK-207) and cultured. Thereafter, as markers of the autophagy phenomenon, the expression level and location of LC3 puncta and the local co-existence with p62 puncta were observed.
For immunofluorescence staining, a cover glass was placed on a 24-well plate, cells were dispensed, cultured for 24 hours, and then treated with 5 uM of the novel p62 ligands according to the present invention. For the action of the compounds, additional cultures were performed for 24 hours, and then the medium was removed. Cells were fixed using formaldehyde at room temperature. In order to prevent non-specific staining, the cells were allowed to react with a blocking solution at room temperature for 1 hour, and then treated with LC3 antibody diluted at a certain ratio using the blocking solution, and allowed to reacted at room temperature for 1 hour. The antibody-treated cells were washed three times with PBS, and goat-derived secondary antibody was diluted at a certain ratio using the blocking solution, and then allowed to react at room temperature for 30 minutes. The cells were washed again with PBS three times, and for intracellular nuclear staining, the expression level, intracellular puncta formation and intracellular coexistence level of p62 and LC3 were observed through a confocal microscopy after DAPI staining.

[4] = test system: LC3; test: Autophagy activity in cultured cells by immunoblotting, treatment time (Experimental Example 3); assay type: cell-based, human; settings: HeLa cells; 5 μM for 1, 3, 6, 12, 24, 48 hours or 10 μM for 24 hours; immunoblot, FIG. 4
Protocol: In order to investigate the autophagy activity efficacy by the compounds (Examples 1-25), immunoblotting was performed in the same manner as in Experimental Example 2 using LC3 as a marker. As for the difference, in order to evaluate the treatment time required for activation and the activity retention time, 5 μM of the representative compounds selected among the present compounds (Example 5 (YTK-1005), Example 6 (YTK-1205), Example 7 (YTK-1305), Example 2 (YTK-2205), Example 3 (YTK-3305), Example 14 (YTK-1108), Example 8 (YTK-105), Example 9 (YTK-205)) were treated for 1, 3, 6, 12, 24, 48 hours. On the other hand, 10 μM of the representative compounds selected among the present compounds (Example 10 (YT 5-1), Example 11 (YT 5-2), Example 16 (YT 8-8), Example 15 (YT 8-7), Example 17 (YTK-107), Example 18 (YTK-207), Example 20 (ATB10041), Example 21 (ATB10042), Example 22 (ATB10043), Example 23 (ATB10044), Example 24 (ATB10045), Example 25 (ATB10046)) were treated for 24 hours.

T1 sequence (Q13501 whole entry): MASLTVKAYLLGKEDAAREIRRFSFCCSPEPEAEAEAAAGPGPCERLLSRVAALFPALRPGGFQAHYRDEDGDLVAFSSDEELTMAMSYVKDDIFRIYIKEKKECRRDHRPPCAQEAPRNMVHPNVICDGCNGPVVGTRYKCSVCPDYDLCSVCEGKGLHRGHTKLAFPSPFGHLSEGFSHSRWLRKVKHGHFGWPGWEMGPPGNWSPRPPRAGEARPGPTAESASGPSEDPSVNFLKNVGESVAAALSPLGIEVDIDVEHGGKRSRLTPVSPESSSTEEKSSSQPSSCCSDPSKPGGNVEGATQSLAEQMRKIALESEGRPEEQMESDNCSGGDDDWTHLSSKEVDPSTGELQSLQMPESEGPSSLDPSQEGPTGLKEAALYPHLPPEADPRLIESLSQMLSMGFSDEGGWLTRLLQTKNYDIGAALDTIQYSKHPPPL

SMILES	p62 protein oligomerization activity (monomer, oligomers and high-molecular aggregates) [1]	autophagy activity (level of LC3) [2]	p62 activation and oligomerization, delivery to autophagosome, autophagy activity (p62 and LC3 puncta, local coexistence) [3]	autophagy activity (level of LC3) [4]
OCCNCc1cccc(OCc2ccc(Cl)cc2)c1 [YT 5-7, 2-((3-((4-chlorobenzyl)oxy)benzyl)amino)ethan-1-ol]	increasing the p62 protein oligomerization activity	increasing the autophagy activity	–	–
OCCNCc1cccc(OCc2ccc(F)cc2)c1 [YT 5-8, 2-((3-((4-fluorobenzyl)oxy)benzyl)amino)ethan-1-ol]	increasing the p62 protein oligomerization activity	increasing the autophagy activity	–	–
OCCNCc1ccc(OCc2ccc(Cl)cc2)c(OCc2ccc(Cl)cc2)c1 [YT-5-1, 2-((3,4-bis((4-chlorobenzyl)oxy)benzyl)amino)ethan-1-ol]	increasing the p62 protein oligomerization activity	–	allow the activation and oligomerization of p62 proteins, and then show the efficacy of delivering them to autophagosome and simultaneously increasing autophagy activity	increasing the autophagy activity
OCCNCc1ccc(OCc2ccc(F)cc2)c(OCc2ccc(F)cc2)c1 [YT-5-2, 2-((3,4-bis((4-fluorobenzyl)oxy)benzyl)amino)ethan-1-ol]	increasing the p62 protein oligomerization activity	–	allow the activation and oligomerization of p62 proteins, and then show the efficacy of delivering them to autophagosome and simultaneously increasing autophagy activity	increasing the autophagy activity
OCCNCc1cccc(OCc2ccccc2)c1 [YTK-105, 2-((3-(benzyloxy)benzyl)amino)ethan-1-ol]	–	increasing the autophagy activity	allow the activation and oligomerization of p62 proteins, and then show the efficacy of delivering them to autophagosome and simultaneously increasing autophagy activity	increasing the autophagy activity
N=C(N)NCCNCc1cccc(OCc2ccccc2)c1 [YTK-107, 1-(2-((3-(benzyloxy)benzyl)amino)ethyl)guanidine]	increasing the p62 protein oligomerization activity	–	allow the activation and oligomerization of p62 proteins, and then show the efficacy of delivering them to autophagosome and simultaneously increasing autophagy activity	increasing the autophagy activity
N=C(N)NCCNCc1cccc(OCCc2ccccc2)c1 [YTK-207]	increasing the p62 protein oligomerization activity	–	allow the activation and oligomerization of p62 proteins, and then show the efficacy of delivering them to autophagosome and simultaneously increasing autophagy activity	increasing the autophagy activity
OCCNCc1ccc(OCc2ccccc2)c(OCc2ccccc2)c1 [YTK-1105, 2-((3,4-bis(benzyloxy)benzyl)amino)ethan-1-ol]	–	increasing the autophagy activity	–	–
OCCNCCNCc1ccc(OCc2ccccc2)c(OCc2ccccc2)c1 [YTK-1108, 2-((2-((3,4-bis(benzyloxy)benzyl)amino)ethyl)amino)ethan-1-ol]	–	increasing the autophagy activity	–	–
OCCNCc1ccc(OCc2ccccc2)c(OCCc2ccccc2)c1 [YTK-1205, 2-((4-(benzyloxy)-3-phenethoxybenzyl)amino)ethan-1-ol]	–	increasing the autophagy activity	allow the activation and oligomerization of p62 proteins, and then show the efficacy of delivering them to autophagosome and simultaneously increasing autophagy activity	–
OCCNCc1ccc(OCc2ccccc2)c(OCCCc2ccccc2)c1 [YTK-1305, 2-((4-(benzyloxy)-3-(3-phenylpropoxy)benzyl)amino)ethan-1-ol]	–	increasing the autophagy activity	allow the activation and oligomerization of p62 proteins, and then show the efficacy of delivering them to autophagosome and simultaneously increasing autophagy activity	–
OCCNCc1ccc(OCCc2ccccc2)c(OCCc2ccccc2)c1 [YTK-2205, 2-((3,4-diphenethoxybenzyl)amino)ethan-1-ol]	–	increasing the autophagy activity	allow the activation and oligomerization of p62 proteins, and then show the efficacy of delivering them to autophagosome and simultaneously increasing autophagy activity	–
OCCNCc1ccc(OCCCc2ccccc2)c(OCCCc2ccccc2)c1 [YTK-3305, 2-((3,4-bis(3-phenylpropoxy)benzyl)amino)ethan-1-ol]	–	increasing the autophagy activity	allow the activation and oligomerization of p62 proteins, and then show the efficacy of delivering them to autophagosome and simultaneously increasing autophagy activity	–

Reference: patent US12427346B2, “P62 ligand compound, and composition for preventing, ameliorating or treating proteinopathies comprising the same” (AUTOTAC INC., priority 2018, dated 2025)
